From patent US11878018B1, “Phosphorylation of Syntaxin 17 by TBK1 controls autophagy initiation” (priority 2018, dated 2024)

Columns and labels:
[1] = test system: Stx17 phosphorylation (Stx17^pS02) by TBK1; experiment: Western blot of Stx17 phosphorylation at Ser-202 in HeLa cells; type: cell-based, human
[2] = test system: LDH sequestration in autophagosomes, HeLa cells; experiment: LDH (lactate dehydrogenase) sequestration assay; type: cell-based, human; settings: WT HeLa cells, EBSS 2 h in presence of bafilomycin A1; 3-methyladenine 10 mM as positive control (FIG. 7N,O)

SMILES: O=C(NCCCNc1nc(Nc2cccc(NC(=O)N3CCCC3)c2)ncc1I)c1cccs1 [BX795]
- Stx17 phosphorylation (Stx17^pS02) ([1]; cells stimulated with LPS, HeLa WT or TBK1 KO cells, Western blot (FIG. 8I)): inhibited Stx17 phosphorylation
- baseline Stx17^pS02 levels ([1]; unstimulated cells, Western blot (FIG. 8I)): reduced the low baseline levels

SMILES: Cn1cnc(N)c2ncnc1-2 [3MA, 3-methyladenine]
- LDH (bulk autophagy cargo) sequestration in autophagosomes [2]: reduction in cargo sequestration

SMILES: CC(=O)N[C@H]1C(O)O[C@H](CO)[C@@H](O)[C@@H]1O[C@H](C)C(=O)N[C@@H](C)C(=O)N[C@H](CCC(=O)O)C(N)=O (mixture of isomers) [MDP, muramyl-dipeptide]
- Stx17^pS02 band response to agonists of TBK1 ([1]; HeLa cells, Western blot (FIG. 8H), band also detectable in resting cells): responsive
